What was measured:
[1] = tested on: Pancreatic cancer cell lines (AsPc1, MIAPaCa2, PancT and P53 2.1.1); experiment: Viability of pancreatic cancer cell lines in astromal or stromal hydrogels (Cell TiterGlo); format: cell-based; conditions: 500 nM JQ1, 72 hours, astromal or stromal culture conditions
Source text: Pancreatic cancer cell lines (AsPc1, MIAPaCa2, PancT and P53 2.1.1) were embedded in HyStem®-C hydrogels (ESI-BIO) at a concentration of 5×10^5 cells/ml. For astromal hydrogels, Glycosil® and Extralink™ components were resuspended in degassed H2O per manufacturer's procotol, and Glycosil®+degassed H2O+Extralink™ were combined in a 1:1:1 ratio. For the stromal hydrogels, Glycosil®, Gelin-S® (denatured collagens), and Extralink™ components were resuspended in degassed H2O per manufacturer's procotol, and Glycosil®+Gelin-S®+Extralink™ were combined in a 1:1:1 ratio. Pancreatic cancer cells were resuspended in the hydrogels and seeded into 96-well plates, 100 μl/well (5×10^4 cells/well). Triplicate wells were seeded for each condition to be tested. After hydrogel polymerization was evident (30-45 minutes), DMEM+10% FBS was added to astromal wells and conditioned media from cancer-associated PSCs was added to stromal wells. Conditioned media was prepared by growing primary cancer-associated PSCs (grown out of human pancreatic tumors) to confluency, changing to fresh DMEM+10% FBS, then collecting the media after 48 hours and passing through a 0.45 um filter to clear debris. […] Viability assays were performed after 72 hours using the Cell TiterGlo reagent (Promega) according to the manufacturer's instructions, but with a 45 minute incubation to ensure efficient lysis in 3D cultures.

[2] = tested on: primary murine HSCs; experiment: Immunocytochemistry (Acta2) of HSC activation into myofibroblasts; format: cell-based, mouse; conditions: day 6, JQ1 500 nM
Description: Primary murine HSCs were seeded onto chamber slides (Nunc). […] Media was aspirated, cells were washed twice with PBS (Gibco) and fixed in 10% buffered formalin at room temperature for 15 minutes. Fixative was removed and cells were washed three times with PBS. The slides were then blocked with 3% BSA and incubated with rabbit anti-ACTA2 antibody (at 1:100 dilution; Abcam) overnight at 4° C. After washing, the slides were incubated for 1 hour with Alexa Fluor546-labeled donkey anti-rabbit IgG antibody (at 1:200 dilution; Invitrogen). Finally, the slides were analyzed for fluorescence using an all-in-one type fluorescent microscope (BioZero BZ-9000; Keyence, Osaka, Japan). Nuclear counterstaining was performed using DAPI (Vector).

[3] = tested on: primary HSCs; experiment: Cell viability assay (CellTiter Glo), primary HSCs; format: cell-based, mouse; conditions: dose-dependent manner
Description: Primary HSCs or LX-2 cells were seeded onto 96-well tissue culture plates.

[4] = tested on: p53 2.1.1 cell line in FVB/n hosts; experiment: Orthotopic allograft of p53 2.1.1 pancreatic cancer cells; format: in vivo, mouse
Description: The p53 2.1.1 cell line, a luciferase-expressing cell line derived from autochthonous pancreatic cancer in pure FVB/n mice, was used for orthotopic transplantation into pancreata of immune-competent FVB/n hosts. Cells were resuspended in 50% DMEM+10% FBS, 50% Matrigel and 1,000 cells per mouse were injected into the body of the pancreas. One week after transplantation, transplanted mice were subject to bioluminescence imaging to measure luciferase activity and, thus, tumor burden. […] Mice were imaged again to measure bioluminescence signal (tumor burden) at experimental endpoint; pancreata were removed, weighed, and fixed or flash-frozen for further analysis.

[5] = tested on: C57BL/6J mice; experiment: CCl4 model of liver fibrosis, therapeutic study; format: in vivo, mouse; conditions: JQ1 50 mg/kg IP
Description: (§1) The animals were terminated 72 hours after the final CCl4 injection and whole livers were collected for histological, cytological, biochemical and molecular analyses.
5 μm sections of formalin-fixed liver were stained following standard hematoxylin-eosin (H&E) and Sirius Red methods and reviewed by a pathologist who was blinded to the experimental conditions. Fibrosis was scored using the Ishak modified histological activity index (HAI) scoring system. Liver fibrosis was also quantified using Image J software on 10 non-contiguous Sirius Red stained sections. […] fibrosis was quantified using hydroxyproline assay. All images were obtained using a high-resolution Leica DFC420 digital camera mounted on an Olympus microscope equipped with ×4/0.13, ×10/0.30, ×20/0.50 and ×40/0.75 UplanFL N plan objective lenses and processed with the Leica Application Suite. Tissue hydroxyproline content was measured using a kit from Biovision (K555-100).
Liver samples were deparaffinized and rehydrated in PBS. Following antigen retrieval with the target retrieval solution (Dako, Glostrup, Denmark), endogenous peroxidase activity was blocked by incubation with 0.3% hydrogen peroxide. […]
Therefore, the ability of JQ1 to prevent progression of ongoing liver fibrosis was determined. […]

[6] = tested on: C57BL/6J mice; experiment: Serum alanine aminotransferase (ALT) assay in CCl4 model; format: in vivo, mouse; conditions: preventive CCl4 model; JQ1 50 mg/kg IP
Description: as §1
The ALT activity in mice serum was measured using a kit from Thermo Scientific (TR71121).

[7] = tested on: primary murine HSCs; experiment: Lipid droplet accumulation assay (BODIPY staining); format: cell-based, mouse; conditions: day 6, JQ1 500 nM
Description: Primary murine HSCs were seeded onto chamber slides (Nunc). […] Media was aspirated, cells were washed twice with PBS (Gibco) and fixed in 10% buffered formalin at room temperature for 15 minutes. Fixative was removed and cells were washed three times with PBS. […] Dye was removed and cells were washed three times with PBS, then mounted using Vectastain mounting medium (Vector Labs). Fluorescence was visualized through the GFP filter on a Leica DM5000B fluorescent microscope. Nuclear counterstaining was performed using DAPI (Vector).

[8] = tested on: primary HSCs; experiment: Cell proliferation assay (BrdU), primary HSCs; format: cell-based, mouse; conditions: JQ1 500 nM
Source text: BrdU-positive cells were counted under fluorescent microscope (Olympus, IX51).

[9] = 75 mg/kg JQ1 i.p. daily for 14 days
[10] = 75 mg/kg JQ1 i.p. daily for 14 days vs vehicle

## Cc1sc2c(c1C)C(c1ccc(Cl)cc1)=N[C@@H](CC(=O)OC(C)(C)C)c1nnc(C)n1-2 [JQ1, (S)-tert-butyl 2-(4-(4-chlorophenyl)-2,3,9-trimethyl-6H-thieno[3,2-f][1,2,4]triazolo[4,3-a][1,4]diazepin-6-yl)acetate]
[1]
  growth of pancreatic cancer cell lines in vitro: significantly reduced
[2]
  HSCs transdifferentiation into myofibroblasts, phenotypically (morphology, Acta2 distribution): dramatically arrested
[3]
  anti-proliferative activity against activated HSCs: significant anti-proliferative activity
[4]; [9]
  BLI and pancreas weight: significantly reduced
  number of phospho-H3+ tumor cells, and number of CD45 and DAPI containing cells: significantly reduced
[4]; [10]
  decrease in cell proliferation (phospho-H3+): about 50%
  decrease in leukocyte recruitment (CD45): about 70%
  decrease in luciferase light units (tumor cell count, tumor burden): about 33%
[5]; CCl4 three weeks, then CCl4/JQ1 co-treatment for three weeks
  progression of liver fibrosis (histological scoring, Sirius red, hydroxyproline, marker gene expression): blocked the progression
[5]; chronic CCl4
  CCl4-induced HSC activation (quantitative Acta2 immunohistochemistry): dramatically reduced
[6]
  liver injury due to CCl4 assessed by serum ALT: not significantly impacted
[7]
  morphology, Acta2 distribution and lipid content of treated cells: closely resembled quiescent (day 1) cells
[8]
  BrdU incorporation into activated HSCs: significant decrease

From patent US20180325914A1, “INCREASING STORAGE OF VITAMIN A, VITAMIN D AND/OR LIPIDS” (Salk Institute for Biological Studies, priority 2014, published 2018)
